One assay concerns cancer cells. Nature of the assay: cytotoxicity of B1R radionuclide therapy by clonogenic assays. Conditions: non-radioactive surrogate up to 10 μM. The class given is cell-based. As to the method: Cytotoxicity of B1R radionuclide therapy was assessed in cancer cells by clonogenic assays. […] Then, media were removed and colonies fixed/stained with 0.5% methylene blue in 50% ethanol, rinsed with tap water and air dried. Colony counting was performed manually or automatically using the Image Pro Plus 5.1.

The test system of another assay is F98 GBM. Description: small animal PET imaging, Fischer/F98 malignant glioma model. To be noted: intravenous, F98 GBM-bearing rats. The assay is classed as in vivo, rat. The method, then:
The F98 GBM cell line (#CRL-2397) was purchased from American Type Culture Collection (ATCC). Cells were cultured as monolayers in Dulbecco's modified Eagle medium (DMEM) supplemented with 10% fetal bovine serum (FBS) and 1% penicillin-streptomycin mixture at 37° C. in a humidified 5% CO2/95% air incubator. The procedure of F98 glioma cell implantation was similar to that used in our previous studies (Côté et al., 2010, Neuropeptides, 44:177-185). […] All tumor transplantations were successful as determined by histology and/or MRI.
PET scans were performed using a LabPET8 (Gamma Medica Inc.) small animal scanner with an axial field of view of 8 cm. […] PET scans were assessed 1 h and 20 h post-injections. […] Regions of interest were traced for tumor, normal brain, heart, liver, kidney, and muscle, and the activity in each organ was measured and reported to the injected dose for percentages calculation. […] In vivo testing of the novel kinin PET radiotracers was also assessed in a model of tumor metastasis induced by the intracardiac injection of 4T1/luc (bioluminescent) mouse breast cancer cells under ultrasound guidance.

The target in the next assay is T1, human B1R (Homo sapiens, UniProt P46663).
T1 construct: It particularly expresses both kinin B1R and B2R at physiological densities; from tissue; host or cells: isolated human umbilical vein
T1 sequence (P46663 1-353): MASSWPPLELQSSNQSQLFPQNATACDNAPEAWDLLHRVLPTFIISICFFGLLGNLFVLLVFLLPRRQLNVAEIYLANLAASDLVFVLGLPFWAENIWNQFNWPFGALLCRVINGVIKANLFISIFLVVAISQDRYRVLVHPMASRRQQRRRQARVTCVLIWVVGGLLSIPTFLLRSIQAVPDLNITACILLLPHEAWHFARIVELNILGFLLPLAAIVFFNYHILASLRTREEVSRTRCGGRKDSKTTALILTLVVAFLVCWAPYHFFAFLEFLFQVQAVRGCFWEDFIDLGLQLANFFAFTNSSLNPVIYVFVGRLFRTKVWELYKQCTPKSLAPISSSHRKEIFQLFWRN
Description: human bioassay using isolated human umbilical veins, B1R. To be noted: versus the βAla-linked compound. The class given is cell-based. The text has this:
The apparent affinity constants (or potency) of kinin agonist and antagonist analogues for human B1R were estimated by in vitro human bioassay using isolated human umbilical veins (Gobeil et al., 1996, supra; Côté et al., 2009, supra). […] It particularly expresses both kinin B1R and B2R at physiological densities. Apparent affinities of peptides were defined in terms of EC50 (pD2) values for agonists and IC50 values for antagonists.

Where a SMILES comes first, the peptide text is derived from it. [ ]: non-standard residue; d: D form. The star is where a group is joined. ξ: configuration not given here. NOTA = O=C(O)CN1CCN(CC(=O)O)CCN(CC(=O)*)CC1; Oic = O=C(O)[C@@H]1C[C@@H]2CCCC[C@@H]2N1; d2Nal = N[C@H](Cc1ccc2ccccc2c1)C(=O)O; ξαMeF = CC(N)(Cc1ccccc1)C(=O)O; Orn = NCCC[C@H](N)C(=O)O; βAla = NCCC(=O)O

On to `CC[C@H](C)[C@H](NC(=O)[C@@H](Cc1ccc2ccccc2c1)NC(=O)[C@H](CO)NC(=O)C(C)(Cc1ccccc1)NC(=O)CNC(=O)[C@@H]1CCCN1C(=O)[C@@H]1C[C@@H]2CCCC[C@@H]2N1C(=O)[C@H](CCCNC(=N)N)NC(=O)[C@H](CCCN)NC(=O)CCNC(=O)CN1CCN(CC(=O)O)CCN(CC(=O)O)CC1)C(=O)O` (stereo partly shown) [Cu-NOTA-βAla-Orn^1-Arg^2-Oic^3-Pro^4-Gly^5-(αMe)Phe^6-Ser^7-DβNal^8-Ile^9-OH] ({NOTA-βAla}-[Orn]R[Oic]PG[ξαMeF]S[d2Nal]I-OH; N-terminus assumed), for which the “anticancer activity / therapeutic efficacy” value with cancer cells is given as “not seen”.

Take “^64Cu-NOTA-βAla-DLys^1-Arg^2-Pro^3-Pro^4-Gly^5-Phe^6-Ser^7-Pro^8-DPhe^9-OH (AKRPPGFSPF; 64Cu-NOTA-betaAla N-terminal; D-Lys1, D-Phe9; SITE (1)...(1) beta-alanine; SITE (2)...(2) D-lysine; SITE (10)...(10) D-phenylalanine)”: the “detection of brain tumors by μPET” value in the assay on F98 GBM is “properly detected relatively small brain tumors”.

As to `CC(=O)[O-].CC(=O)[O-].[64Cu+2]` [^64Cu-acetate, reference compound], the “anticancer activity / therapeutic efficacy” value with cancer cells is “not seen”.

`CC[C@H](C)[C@H](NC(=O)[C@@H](Cc1ccc2ccccc2c1)NC(=O)[C@H](CO)NC(=O)C(C)(Cc1ccccc1)NC(=O)CNC(=O)[C@@H]1CCCN1C(=O)[C@@H]1C[C@@H]2CCCC[C@@H]2N1C(=O)[C@H](CCCNC(=N)N)NC(=O)[C@H](CCCN)NC(=O)CN1CCN(CC(=O)O)CCN(CC(=O)O)CC1)C(=O)O` (stereo partly shown) [Cu-NOTA-Orn^1-Arg^2-Oic^3-Pro^4-Gly^5-(αMe)Phe^6-Ser^7-DβNal^8-Ile^9-OH] ({NOTA}-[Orn]R[Oic]PG[ξαMeF]S[d2Nal]I-OH; N-terminus assumed): the “decrease in affinity to hB1R in absence of linker” value at human B1R is listed as 10 fold.

Values taken from US11213597B2, “Kinin-based theranostic probes for solid cancers and uses thereof” (SOCIETE DE COMMERCIALISATION DES PRODUITS DE LA RECHERCHE …, priority 2015, dated 2022).
